In US11401277B2, “Anti-bacterial heterocyclic compounds and their synthesis” (Bugworks Research, Inc., priority 2017, dated 2022):
In brackets after ≈: the same amount, converted by molar mass. Several values for one entry are separate records, joined by “and”; a condition that tells them apart may be missing. Equal entries are not always repeated.

Tests used:
[1] = IV Formulation solubility; format: physicochemical; settings: 10% L-ascorbic acid in MilliQ water, 37 °C, pH 2.8, aqueous with cosolvent or surfactant or cyclodextrin, thermodynamic from solid, 1N NaOH for pH adjustment, read-out: Solubility in 10% L-ascorbic acid in fresh MilliQ water(v/v), Final pH~2.8
Description: Procedure: Weighed appropriate amount of the Compound 2 to be tested and dissolved in 1 ml of the 10% ascorbic acid solution. (Vortex for a few seconds if the compound doesn't dissolve instantly). Sonicated the compound solution at 37° C. for 5 minutes using a bath sonicator to obtain a visually clear solution. […]

[2] = tested on: Proteus mirabilis ATCC 43071; test: MIC studies in LB Media; format: cell-based; settings: ATCC43071, read-out: Minimum Inhibitory Concentration in LB Media, P. mi
Description: (§1) Bacterial cultures that were stored as glycerol stocks at −80° C. were sub cultured on LB agar plates to obtain isolated colonies. A single colony of each strain was cultured in LB broth. The cultures were incubated at 37° C., 200 rpm till they reach an optical density (OD at 600 nm) of 0.8 to 1. […] Test compounds were dissolved in dimethyl sulfoxide (DMSO) to a stock concentration of 4 mg/ml. A two-fold dilution series of this DMSO stock was prepared in a 96 well V bottom microtitre plate from rows A to H. A 3 μL volume of these dilutions were transferred to a 96-well flat bottom microtitre assay plate. Controls to monitor the effects of DMSO and media sterility were included. Each well was inoculated with 150 μL of the above diluted culture. The plates were incubated at 37° C. overnight in a humidified incubator. The following morning, the plates were read using a Spectrophotometer at 600 nm wavelength.

[3] = tested on: Enterobacter cloacae ATCC 13047; test: MIC studies in LB Media; format: cell-based; settings: ATCC13047, read-out: Minimum Inhibitory Concentration in LB Media, E. cl
Description: as §1

[4] = tested on: Citrobacter freundii ATCC 43864; test: MIC studies in LB Media; format: cell-based; settings: ATCC43864, read-out: Minimum Inhibitory Concentration in LB Media, C. fr
Description: as §1

[5] = tested on: E. coli ATCC 25922; test: MIC studies in LB Media; format: cell-based; settings: Escherichia coli, ATCC25922, read-out: Minimum Inhibitory Concentration in LB Media, E. co
Description: as §1

[6] = tested on: K. pneumoniae ATCC 13883; test: MIC studies in LB Media; format: cell-based; settings: Klebsiella pneumoniae, ATCC13883, read-out: Minimum Inhibitory Concentration in LB Media, K. pn
Description: as §1

[7] = tested on: Morganella morganii ATCC 25830; test: MIC studies in LB Media; format: cell-based; settings: ATCC25830, read-out: Minimum Inhibitory Concentration in LB Media, M. mo
Description: as §1

[8] = tested on: A. baumannii ATCC 19606; test: MIC studies in LB Media; format: cell-based; settings: Acinetobacter baumannii, ATCC19606, read-out: Minimum Inhibitory Concentration in LB Media, A. ba
Description: as §1

[9] = tested on: P. aurigenosa ATCC 27853; test: MIC studies in LB Media; format: cell-based; settings: Pseudomonas aeruginosa, ATCC27853, read-out: Minimum Inhibitory Concentration in LB Media, P. ae
Description: as §1

[10] = tested on: S. aureus ATCC 29213; test: MIC studies in LB Media; format: cell-based; settings: Staphylococcus aureus, ATCC29213, MIC = 90% inhibition of growth, read-out: Minimum Inhibitory Concentration in LB Media, S. au
Description: as §1

[11] = tested on: E. faecalis ATCC 29212; test: MIC studies in LB Media; format: cell-based; settings: Enterococcus faecalis, ATCC29212, read-out: Minimum Inhibitory Concentration in LB Media, E. fa
Description: as §1

[12] = tested on: E. coli [ATCC25922]; test: Neutropenic Thigh Infection Model in Rat, E. coli; format: in vivo; settings: for MEAN ± SD (Log10 CFU/g thigh) / Mean Log 10 CFU/thigh reduction (wrt 2 h PI control: 5.04 Log10CFU/g thigh) / Log10 CFU/g thigh: i.v., 1 h infusion; for Log10 CFU/g thigh: individual animals, 10 hr post infection
[13] = tested on: P. aurigenosa clinical strains; test: Susceptibility (MIC50 and MIC90 determination) studies, clinical strains; format: cell-based; settings: CLSI
[14] = Stability of IV formulation at room temperature; format: physicochemical; settings: 10% L-ascorbic acid formulation
[15] = tested on: E. coli clinical strains; test: Susceptibility (MIC50 and MIC90 determination) studies, clinical strains; format: cell-based; settings: CLSI
[16] = tested on: E. cloacae clinical strains; test: as above; format: cell-based; settings: CLSI
[17] = molecular target: T1, hERG potassium channel (Homo sapiens, UniProt Q12809); test: hERG inhibition assay, QPatch HTX automated electrophysiology; format: cell-based; settings: CHO cell line expressing hERG; whole-cell patch clamp, room temperature
T1 construct: Chinese Hamster Ovary cell line stably expressing the full-length hERG potassium channel; expressed in transfected cells
Description: The compounds were tested for inhibition of the human ether a go-go related gene (hERG) K+ channel using QPatch HTX automated electrophysiology.
Compounds of Formula I were solubilised to 100 mM in DMSO before dilution in HBPS to 300 μM.
Electrophysiological recordings were made from a Chinese Hamster Ovary cell line stably expressing the full-length hERG potassium channel. Single cell ionic currents were measured in whole-cell patch clamp configuration at room temperature (21-23° C.) using the QPatch HTX platform (Sophion). Intracellular solution contained (mM): 120 KF, 20 KCl, 10 EGTA, 10 HEPES and was buffered to pH 7.3. […] Cells were clamped at a holding potential of −80 mV. Cells were stepped to +20 mV for 2 s then −40 mV for 3 s before returning to the holding potential. This sweep was repeated 10 times at 10 s intervals. hERG currents were measured from the tail step and referenced to the holding current. Compounds were then incubated for 2 minutes prior to a second measurement of ion channel current using an identical pulse train.

[18] = Escherichia coli, E. coli clinical strains

T1 sequence (Q12809 whole entry): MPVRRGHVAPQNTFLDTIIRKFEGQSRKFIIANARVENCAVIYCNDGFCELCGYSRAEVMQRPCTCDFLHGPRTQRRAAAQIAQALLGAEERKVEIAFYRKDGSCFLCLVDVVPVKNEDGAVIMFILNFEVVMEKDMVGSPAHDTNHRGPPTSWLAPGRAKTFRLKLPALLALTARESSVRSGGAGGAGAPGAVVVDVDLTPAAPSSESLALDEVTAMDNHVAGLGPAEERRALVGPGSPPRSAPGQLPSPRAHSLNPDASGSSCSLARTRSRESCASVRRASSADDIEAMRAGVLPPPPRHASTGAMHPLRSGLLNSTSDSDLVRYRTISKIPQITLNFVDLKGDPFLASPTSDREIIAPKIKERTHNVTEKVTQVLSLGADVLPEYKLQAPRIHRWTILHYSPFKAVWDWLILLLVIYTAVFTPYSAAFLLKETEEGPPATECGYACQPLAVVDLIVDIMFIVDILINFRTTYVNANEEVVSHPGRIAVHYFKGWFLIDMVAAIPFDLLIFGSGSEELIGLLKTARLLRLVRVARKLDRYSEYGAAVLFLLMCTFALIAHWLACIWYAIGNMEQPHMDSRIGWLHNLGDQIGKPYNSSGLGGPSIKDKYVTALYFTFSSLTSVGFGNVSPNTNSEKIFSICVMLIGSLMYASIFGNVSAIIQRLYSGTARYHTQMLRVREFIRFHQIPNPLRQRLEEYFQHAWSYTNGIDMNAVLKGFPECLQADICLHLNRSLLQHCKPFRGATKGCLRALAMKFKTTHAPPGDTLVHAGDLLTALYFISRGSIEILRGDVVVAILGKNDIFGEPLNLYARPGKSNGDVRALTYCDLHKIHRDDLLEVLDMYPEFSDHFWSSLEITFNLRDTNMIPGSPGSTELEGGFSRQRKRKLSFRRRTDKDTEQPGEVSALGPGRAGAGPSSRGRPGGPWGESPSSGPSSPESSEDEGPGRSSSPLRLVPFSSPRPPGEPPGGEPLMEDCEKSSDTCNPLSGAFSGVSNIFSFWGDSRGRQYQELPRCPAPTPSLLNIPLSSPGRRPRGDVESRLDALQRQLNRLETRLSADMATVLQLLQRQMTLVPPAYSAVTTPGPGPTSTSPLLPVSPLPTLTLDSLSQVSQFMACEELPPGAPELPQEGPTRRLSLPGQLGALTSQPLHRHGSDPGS

Cn1c(=O)ccc2ccc(F)c(OCCNC[C@H]3CN(c4cnc5c(n4)NC(=O)CO5)C(=O)O3)c21 [Compound 2, (S)-6-(5-(((2-((7-fluoro-1-methyl-2-oxo-1,2-dihydroquinolin-8-yl)oxy)ethyl)amino)methyl)-2-oxooxazolidin-3-yl)-2H-pyrazino[2,3-b][1,4]oxazin-3(4H)-one]
solubility at 5 min [1]: 15 mg/mL (≈ 31000 µM)
MIC [2]: 0.125 µg/mL (≈ 0.258 µM)
MIC [3]: 0.125 µg/mL (≈ 0.258 µM)
MIC [4]: ≤ 0.03 µg/mL
MIC [5]: 0.03 µg/mL (≈ 0.0619 µM)
MIC [6]: 0.06 µg/mL (≈ 0.124 µM)
MIC [7]: 0.125 µg/mL (≈ 0.258 µM)
MIC [8]: 0.06 µg/mL (≈ 0.124 µM)
MIC [9]: 0.5 µg/mL (≈ 1.03 µM)
MIC [10]: ≤ 0.015 µg/mL
MIC [11]: 0.06 µg/mL (≈ 0.124 µM)
MEAN ± SD (Log10 CFU/g thigh) ([12]; 3 mg/kg): 5.08 ± 0.39 Log10 CFU/g thigh
Mean Log 10 CFU/thigh reduction (wrt 2 h PI control: 5.04 Log10CFU/g thigh) ([12]; 3 mg/kg): 0.77 Log 10 CFU/thigh
Log10 CFU/g thigh ([12]; 3 mg/kg): 5.37 Log10 CFU/g thigh and 4.64 Log10 CFU/g thigh and 5.23 Log10 CFU/g thigh
MEAN ± SD (Log10 CFU/g thigh) ([12]; 10 mg/kg): 4.41 ± 0.18 Log10 CFU/g thigh
Mean Log 10 CFU/thigh reduction (wrt 2 h PI control: 5.04 Log10CFU/g thigh) ([12]; 10 mg/kg): 1.44 Log 10 CFU/thigh
Log10 CFU/g thigh ([12]; 10 mg/kg): 4.44 Log10 CFU/g thigh and 4.57 Log10 CFU/g thigh and 4.21 Log10 CFU/g thigh
MEAN ± SD (Log10 CFU/g thigh) ([12]; 30 mg/kg): 2.83 ± 0.35 Log10 CFU/g thigh
Mean Log 10 CFU/thigh reduction (wrt 2 h PI control: 5.04 Log10CFU/g thigh) ([12]; 30 mg/kg): 3.02 Log 10 CFU/thigh
Log10 CFU/g thigh ([12]; 30 mg/kg): 2.66 Log10 CFU/g thigh and 2.6 Log10 CFU/g thigh and 3.24 Log10 CFU/g thigh
efficacy with respect to 2 h Post Infection (PI) control (in words) ([12]; 3, 10 and 30 mg/kg, rat thigh E. coli): significant dose dependent bactericidal efficacy
MIC50 ([13]; Pae clinical strains): 1 µg/mL (≈ 2.06 µM)
MIC90 ([13]; Pae clinical strains): 1 µg/mL (≈ 2.06 µM)
Minimum (MIC) ([13]; Pae clinical strains, MIC50/MIC90 in μg/ml): 0.031 µg/mL
MIC ATCC27853 ([13]; Pae reference strain ATCC27853, MIC50/MIC90 in μg/ml): 0.5 µg/mL (≈ 1.03 µM)
IV formulation stable at room temperature [14]: more than 24 hours
Minimum (MIC) ([15]; E. coli clinical strains, MIC50/MIC90 in μg/ml): 0.03 µg/mL
MIC ATCC25922 ([15]; E. coli reference strain ATCC25922, MIC50/MIC90 in μg/ml): 0.03 µg/mL (≈ 0.0619 µM)
MIC50 [15, 18]: 0.25 µg/mL (≈ 0.516 µM)
MIC90 [15, 18]: 0.25 µg/mL (≈ 0.516 µM)
Minimum (MIC) ([16]; MIC50/MIC90 in μg/ml): 0.03 µg/mL
MIC50 ([16]; Enterobacter cloacae): 0.125 µg/mL (≈ 0.258 µM)
MIC90 ([16]; Enterobacter cloacae): 0.25 µg/mL (≈ 0.516 µM)
IC50 [17]: 124 µM
